In ChEMBL document CHEMBL4396870, “Pharmacological Chaperones for the Treatment of α-Mannosidosis” (J Med Chem, 2019):
Residue numbers refer to the chain shown, from its start.

Assays:
[1] = test system: T1, Lysosomal alpha-mannosidase (Homo sapiens), O00754 [C55F]; experiment: Chaperone activity at human Lysosomal alpha-mannosidase C55F mutant transfected in human […] knockout HAP1 cells assessed as enzyme activity enhancement at 0.2 uM incubated for 96 hrs relative to control
T1 sequence (whole entry): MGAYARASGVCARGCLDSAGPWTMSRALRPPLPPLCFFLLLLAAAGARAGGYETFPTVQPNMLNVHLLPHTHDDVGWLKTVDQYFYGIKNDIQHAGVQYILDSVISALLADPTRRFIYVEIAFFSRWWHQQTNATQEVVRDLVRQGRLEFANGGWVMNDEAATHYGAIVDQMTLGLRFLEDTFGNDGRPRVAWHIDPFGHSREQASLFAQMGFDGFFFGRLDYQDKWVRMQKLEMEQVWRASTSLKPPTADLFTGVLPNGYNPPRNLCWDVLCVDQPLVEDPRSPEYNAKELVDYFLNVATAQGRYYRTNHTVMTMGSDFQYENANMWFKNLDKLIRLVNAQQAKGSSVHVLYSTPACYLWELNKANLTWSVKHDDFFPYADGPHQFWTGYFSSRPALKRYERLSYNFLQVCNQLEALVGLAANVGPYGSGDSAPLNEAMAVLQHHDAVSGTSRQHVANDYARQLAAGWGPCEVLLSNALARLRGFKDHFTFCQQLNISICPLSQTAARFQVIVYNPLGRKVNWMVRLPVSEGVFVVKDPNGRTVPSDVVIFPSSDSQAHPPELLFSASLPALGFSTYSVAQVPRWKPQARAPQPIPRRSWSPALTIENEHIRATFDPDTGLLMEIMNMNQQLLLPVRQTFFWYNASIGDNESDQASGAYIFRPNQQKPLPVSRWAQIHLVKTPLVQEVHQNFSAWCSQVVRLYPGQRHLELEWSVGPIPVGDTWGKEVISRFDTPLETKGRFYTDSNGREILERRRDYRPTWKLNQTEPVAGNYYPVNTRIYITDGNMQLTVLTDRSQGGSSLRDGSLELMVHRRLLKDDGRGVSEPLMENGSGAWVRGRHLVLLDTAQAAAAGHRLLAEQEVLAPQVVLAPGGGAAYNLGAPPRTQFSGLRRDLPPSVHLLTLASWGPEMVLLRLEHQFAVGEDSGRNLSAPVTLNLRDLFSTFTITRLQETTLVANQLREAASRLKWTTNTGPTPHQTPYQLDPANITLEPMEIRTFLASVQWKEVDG

[2] = test system: T2, Lysosomal alpha-mannosidase (Homo sapiens), O00754 [H72L]; experiment: Chaperone activity at human Lysosomal alpha-mannosidase H72L mutant transfected in human […] knockout HAP1 cells assessed as enzyme activity enhancement at 0.2 uM incubated for 96 hrs relative to control
T2 sequence (whole entry): T1 sequence (whole entry) with F55C, H72L

| Compound | Activity [1] | Activity [2] |
| --- | --- | --- |
| CC(C)(C)OC(=O)NCCCCCCCCCN[C@@H]1[C@@H](O)[C@@H](O)[C@H](O)[C@H]2COC(=O)N21 | 13% | 0% |
| COC[C@H]1O[C@@H]2O[C@H]3[C@H](OC)[C@@H](OC)[C@@H](O[C@H]4[C@H](OC)[C@@H](OC)[C@@H](O[C@H]5[C@H](OC)[C@@H](OC)[C@@H](O[C@H]6[C@H](OC)[C@@H](OC)[C@@H](O[C@H]7[C@H](OC)[C@@H](OC)[C@@H](O[C@H]8[C@H](OC)[C@@H](OC)[C@@H](O[C@H]1[C@H](OC)[C@H]2OC)O[C@@H]8COC)O[C@@H]7COC)O[C@@H]6COC)O[C@@H]5COCc1cn(CCCCCCN[C@@H]2[C@@H](O)[C@@H](O)[C@H](O)[C@H]5COC(=O)N52)nn1)O[C@@H]4COC)O[C@@H]3COC | 23% | 48% |
